Molecules are shown by their SMILES.

This experiment addresses T1, human m4 receptors (Homo sapiens, UniProt P08173).
T1 construct: expressed in transfected cells; host or cells: CHO K1 cells
The experiment can be described thus: Stimulation of cyclic AMP production in pertussis toxin-treated CHO-m4 cells. It counts as cell-based. The note with it: forskolin present. As to the method: Cyclic AMP Accumulation in Pertussis Toxin-Treated CHO m4 Cells. CHO K1 cells transfected with human m4 receptors were grown to near confluency in T-150 flasks using Dulbecco's Modified Eagle Medium (DMEM) containing 10% fetal bovine serum. Cells were detached with 0.05% trypsin, 0.53 mM EDTA, and were suspended in medium containing 100 ng/ml pertussis toxin. Cells were plated at 30,000 cells per well into 96 well plates. Eighteen to twenty hours later the medium was removed and the cells were washed with serum-bee medium. Attached cells were incubated at 37 C for one hour after addition of […] of serum free DMEM containing 1 mM 3-isobutyl-1-methylxanthine and 1 mM forskolin plus or minus drugs being tested. Incubations were terminated with […] per well of serum free DMEM containing 0.3% triton-X-100. After stopping incubations the plates were allowed to sit for 20 minutes to extract cAMP and samples were then diluted 2.5-fold and were assayed using the scintillation proximity assay of Amersham (Arlington Heights, Ill.).
Representative results from the M4 assay are as follows
Stimulation of cyclic AMP production in CHO-m4 cells.

T1 sequence (P08173 whole entry): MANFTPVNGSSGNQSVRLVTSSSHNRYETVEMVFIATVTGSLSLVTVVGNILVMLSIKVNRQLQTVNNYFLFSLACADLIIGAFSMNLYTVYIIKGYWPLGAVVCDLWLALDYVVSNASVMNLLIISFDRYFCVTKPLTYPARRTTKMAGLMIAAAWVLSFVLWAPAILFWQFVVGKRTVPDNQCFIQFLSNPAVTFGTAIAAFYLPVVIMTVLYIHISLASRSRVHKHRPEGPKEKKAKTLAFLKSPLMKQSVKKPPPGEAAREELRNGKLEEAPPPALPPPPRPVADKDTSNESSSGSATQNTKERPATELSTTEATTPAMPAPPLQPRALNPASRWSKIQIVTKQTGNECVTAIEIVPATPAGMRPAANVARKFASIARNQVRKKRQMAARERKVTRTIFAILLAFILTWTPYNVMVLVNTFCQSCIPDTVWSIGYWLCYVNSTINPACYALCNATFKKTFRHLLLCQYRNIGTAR

In the case of `O=C(NC1c2cc(N=CN3CCCC3)ccc2CC1O)C1CCCCC1` (stereo not drawn) [Compound 11], the “% Maximum Stimulation Compared to Oxotremorine-M” value is 34%.

Consider `O=C(NC1c2cc(N=CN3CCCC3)ccc2CC1O)c1cccnc1Cl` (stereo not drawn) [Compound 12], for which the “% Maximum Stimulation Compared to Oxotremorine-M” value was determined as 26%.

For the compound `N#Cc1ccc(C(=O)NC2c3cc(N=CN4CCCC4)ccc3CC2O)cc1` (stereo not drawn) [Compound 13], the “% Maximum Stimulation Compared to Oxotremorine-M” value is given as below 20%.

For the compound `O=C(NC1c2cc(N=CN3CCCC3)ccc2CC1O)c1cc(Cl)cc(Cl)c1` (stereo not drawn) [Compound 14], the “% Maximum Stimulation Compared to Oxotremorine-M” value was 100%.

As to `O=C(NC1c2cc(N=CN3CCCC3)ccc2CC1O)c1cccc2ccccc12` (stereo not drawn) [Compound 15], the “% Maximum Stimulation Compared to Oxotremorine-M” value turned out to be 76%.

For `O=C(NC1c2cc(N=CN3CCCC3)ccc2CC1O)c1ccc2ccccc2c1` (stereo not drawn) [Compound 17], the “% Maximum Stimulation Compared to Oxotremorine-M” value was found to be 56%.

As to `O=C(NC1c2cc(N=CN3CCCC3)ccc2CC1O)c1ccc(C(F)(F)F)cc1` (stereo not drawn) [Compound 18], the “% Maximum Stimulation Compared to Oxotremorine-M” value is 61%.

Take `O=C(NC1c2cc(N=CN3CCCC3)ccc2CC1O)C(F)(F)F` (stereo not drawn) [Compound 19]: the “% Maximum Stimulation Compared to Oxotremorine-M” value is below 20%.

For `O=C(NC1c2cc(N=CN3CCCC3)ccc2CC1O)c1ccc([N+](=O)[O-])cc1Cl` (stereo not drawn) [Compound 20], the “% Maximum Stimulation Compared to Oxotremorine-M” value is 69%.

`O=C(NC1c2cc(N=CN3CCCC3)ccc2CC1O)c1cccs1` (stereo not drawn) [Compound 21]: the “% Maximum Stimulation Compared to Oxotremorine-M” value is 23%.

Regarding `O=C(NC1c2cc(N=CN3CCCC3)ccc2CC1O)c1cc(F)cc(F)c1` (stereo not drawn) [Compound 23], the “% Maximum Stimulation Compared to Oxotremorine-M” value was below 20%.

`O=C(NC1c2cc(N=CN3CCCC3)ccc2CC1O)c1cccc(F)c1F` (stereo not drawn) [Compound 24]: the “% Maximum Stimulation Compared to Oxotremorine-M” value came out at 22%.

With `O=C(NC1c2cc(N=CN3CCCC3)ccc2CC1O)c1cccc([N+](=O)[O-])c1` (stereo not drawn) [Compound 25], the “% Maximum Stimulation Compared to Oxotremorine-M” value is recorded as 43%.

`CCCc1ccc(C(=O)NC2c3cc(N=CN4CCCC4)ccc3CC2O)cc1` (stereo not drawn) [Compound 26]: the “% Maximum Stimulation Compared to Oxotremorine-M” value is reported as below 20%.

`Cc1cc(C)c(C(=O)NC2c3cc(N=CN4CCCC4)ccc3CC2O)c(C)c1` (stereo not drawn) [Compound 27]: the “% Maximum Stimulation Compared to Oxotremorine-M” value is below 20%.

Consider `O=C(CSc1ccccc1)NC1c2cc(N=CN3CCCC3)ccc2CC1O` (stereo not drawn) [Compound 28], for which the “% Maximum Stimulation Compared to Oxotremorine-M” value is on record as below 20%.

On to `O=C(NC1c2cc(N=CN3CCCC3)ccc2CC1O)c1c(F)ccc(F)c1F` (stereo not drawn) [Compound 29], for which the “% Maximum Stimulation Compared to Oxotremorine-M” value was below 20%.

On to `O=C(NC1c2cc(N=CN3CCCC3)ccc2CC1O)c1cccc(F)c1` (stereo not drawn) [Compound 30], for which the “% Maximum Stimulation Compared to Oxotremorine-M” value was below 20%.

Turning to `O=C(NC1c2cc(N=CN3CCCC3)ccc2CC1O)c1cccc(Cl)c1Cl` (stereo not drawn) [Compound 31], the “% Maximum Stimulation Compared to Oxotremorine-M” value is on record as 45%.

With `O=C(NC1c2cc(N=CN3CCCC3)ccc2CC1O)c1cc(F)ccc1F` (stereo not drawn) [Compound 32], the “% Maximum Stimulation Compared to Oxotremorine-M” value is below 20%.

In the case of `O=C(NC1c2cc(N=CN3CCCC3)ccc2CC1O)c1ccc(F)c(F)c1F` (stereo not drawn) [Compound 33], the “% Maximum Stimulation Compared to Oxotremorine-M” value is on record as 45%.

For the compound `COc1cccc(C(=O)NC2c3cc(N=CN4CCCC4)ccc3CC2O)c1` (stereo not drawn) [Compound 34], the “% Maximum Stimulation Compared to Oxotremorine-M” value was determined as 45%.

With `O=C(NC1c2cc(N=CN3CCCC3)ccc2CC1O)c1ccccc1C(F)(F)F` (stereo not drawn) [Compound 35], the “% Maximum Stimulation Compared to Oxotremorine-M” value is reported as 65%.

Take `COc1cc(OC)cc(C(=O)NC2c3cc(N=CN4CCCC4)ccc3CC2O)c1` (stereo not drawn) [Compound 36]: the “% Maximum Stimulation Compared to Oxotremorine-M” value is on record as below 20%.

On to `Cc1cccc(C(=O)NC2c3cc(N=CN4CCCC4)ccc3CC2O)c1` (stereo not drawn) [Compound 37], for which the “% Maximum Stimulation Compared to Oxotremorine-M” value was 76%.

As for `N#Cc1cccc(C(=O)NC2c3cc(N=CN4CCCC4)ccc3CC2O)c1` (stereo not drawn) [Compound 38], the “% Maximum Stimulation Compared to Oxotremorine-M” value is given as below 20%.

Regarding `O=C(NC1c2cc(N=CN3CCCC3)ccc2CC1O)c1cc(F)c(F)c(F)c1` (stereo not drawn) [Compound 39], the “% Maximum Stimulation Compared to Oxotremorine-M” value turned out to be 43%.

On to `O=C(NC1c2cc(N=CN3CCCC3)ccc2CC1O)c1cc(F)c(F)c(F)c1F` (stereo not drawn) [Compound 40], for which the “% Maximum Stimulation Compared to Oxotremorine-M” value is given as 96%.

Turning to `O=C(NC1c2cc(N=CN3CCCC3)ccc2CC1O)C1CCC1` (stereo not drawn) [Compound 41], the “% Maximum Stimulation Compared to Oxotremorine-M” value is given as below 20%.

As to `O=C(NC1c2cc(N=CN3CCCC3)ccc2CC1O)c1ccccc1Cl` (stereo not drawn) [Compound 44], the “% Maximum Stimulation Compared to Oxotremorine-M” value is 41%.

Consider `CCCCc1ccc(C(=O)N[C@@H]2c3cc(N=CN4CCCC4)ccc3C[C@H]2O)cc1` [Compound 45], for which the “% Maximum Stimulation Compared to Oxotremorine-M” value is below 20%.

`O=C(N[C@@H]1c2cc(N=CN3CCCC3)ccc2C[C@H]1O)c1c(Cl)cccc1Cl` [Compound 46]: the “% Maximum Stimulation Compared to Oxotremorine-M” value came to 154%.

With `O=C(N[C@@H]1c2cc(N=CN3CCCC3)ccc2C[C@H]1O)c1c(Cl)cc(Cl)cc1Cl` [Compound 47], the “% Maximum Stimulation Compared to Oxotremorine-M” value is below 20%.

Take `CN(C)C=Nc1ccc2c(c1)[C@@H](NC(=O)c1ccccc1)[C@H](O)C2` [Compound 57]: the “% Maximum Stimulation Compared to Oxotremorine-M” value is reported as 5%.

As to `CN(C)C=Nc1ccc2c(c1)[C@@H](NC(=O)c1cc(Cl)cc(Cl)c1)[C@H](O)C2` [Compound 58], the “% Maximum Stimulation Compared to Oxotremorine-M” value was found to be 74%.

For `CCCCOc1ccc(C(=O)N[C@@H]2c3cc(N=CN(C)C)ccc3C[C@H]2O)cc1` [Compound 59], the “% Maximum Stimulation Compared to Oxotremorine-M” value came to 22%.

Consider `CN(C)C=Nc1ccc2c(c1)[C@@H](NC(=O)c1cc(C(F)(F)F)cc(C(F)(F)F)c1)[C@H](O)C2` [Compound 60], for which the “% Maximum Stimulation Compared to Oxotremorine-M” value was 100%.

In the case of `CN(C)C=Nc1ccc2c(c1)[C@@H](NC(=O)c1cccc(C#N)c1)[C@H](O)C2` [Compound 61], the “% Maximum Stimulation Compared to Oxotremorine-M” value is 39%.

As to `CN(C)C=Nc1ccc2c(c1)[C@@H](NC(=O)C1CCCC1)[C@H](O)C2` [Compound 62], the “% Maximum Stimulation Compared to Oxotremorine-M” value is reported as 27%.

In the case of `CN(C)C=Nc1ccc2c(c1)[C@@H](NC(=O)c1ccc3ccccc3c1)[C@H](O)C2` [Compound 63], the “% Maximum Stimulation Compared to Oxotremorine-M” value was 13%.

As for `CN(C)C=Nc1ccc2c(c1)[C@@H](NC(=O)c1cc(F)cc(C(F)(F)F)c1)[C@H](O)C2` [Compound 64], the “% Maximum Stimulation Compared to Oxotremorine-M” value was determined as 52%.

For the compound `CN(C)C=Nc1ccc2c(c1)[C@@H](NC(=O)c1cc(F)c(F)c(F)c1)[C@H](O)C2` [Compound 65], the “% Maximum Stimulation Compared to Oxotremorine-M” value was determined as 30%.

As for `CN(C)C=Nc1ccc2c(c1)[C@@H](NC(=O)C(F)(F)F)[C@H](O)C2` [Compound 66], the “% Maximum Stimulation Compared to Oxotremorine-M” value stood at 0%.

In the case of `CCc1ccc(C(=O)N[C@@H]2c3cc(N=CN(C)C)ccc3C[C@H]2O)cc1` [Compound 67], the “% Maximum Stimulation Compared to Oxotremorine-M” value amounted to 7%.

Turning to `CN(C)C=Nc1ccc2c(c1)[C@@H](NC(=O)c1sccc1Cl)[C@H](O)C2` [Compound 68], the “% Maximum Stimulation Compared to Oxotremorine-M” value is on record as 0%.

For the compound `CN(C)C=Nc1ccc2c(c1)[C@@H](NC(=O)c1cc3ccccc3s1)[C@H](O)C2` [Compound 69], the “% Maximum Stimulation Compared to Oxotremorine-M” value is 14%.

As to `CCCCc1ccc(C(=O)N[C@@H]2c3cc(N=CN(C)C)ccc3C[C@H]2O)cc1` [Compound 70], the “% Maximum Stimulation Compared to Oxotremorine-M” value was 18%.

Consider `CN(C)C=Nc1ccc2c(c1)[C@@H](NC(=O)c1cccc3ccccc13)[C@H](O)C2` [Compound 71], for which the “% Maximum Stimulation Compared to Oxotremorine-M” value is reported as 95%.

Source of the values: patent US6395735B2, “Pharmaceutical compounds” (Eli Lilly and Company, priority 1997, dated 2002).
